How the values were obtained:
[1] = target: T1, Adenosine A1 (Homo sapiens, UniProt P30542); test: In vitro SafetyScreen panel; format: binding
T1 construct: Eurofins Discovery (contract panel) PP223
Procedure: (§1) In vitro off-target pharmacological activities of HSK21542 were evaluated on 86 targets using a SafetyScreen panel (Item PP223, target selectivity panel) and the corresponding methods could be found at https://www.eurofinsdiscoveryservices.com/.

[2] = target: T2, Adrenergic α1B (Rattus norvegicus, UniProt P15823); test: In vitro SafetyScreen panel; format: binding
T2 construct: Eurofins Discovery (contract panel) PP223
Procedure: as §1

[3] = target: T3, Adrenergic α1D (Homo sapiens, UniProt P25100); test: In vitro SafetyScreen panel; format: binding
T3 construct: Eurofins Discovery (contract panel) PP223
T3 sequence (P25100 whole entry): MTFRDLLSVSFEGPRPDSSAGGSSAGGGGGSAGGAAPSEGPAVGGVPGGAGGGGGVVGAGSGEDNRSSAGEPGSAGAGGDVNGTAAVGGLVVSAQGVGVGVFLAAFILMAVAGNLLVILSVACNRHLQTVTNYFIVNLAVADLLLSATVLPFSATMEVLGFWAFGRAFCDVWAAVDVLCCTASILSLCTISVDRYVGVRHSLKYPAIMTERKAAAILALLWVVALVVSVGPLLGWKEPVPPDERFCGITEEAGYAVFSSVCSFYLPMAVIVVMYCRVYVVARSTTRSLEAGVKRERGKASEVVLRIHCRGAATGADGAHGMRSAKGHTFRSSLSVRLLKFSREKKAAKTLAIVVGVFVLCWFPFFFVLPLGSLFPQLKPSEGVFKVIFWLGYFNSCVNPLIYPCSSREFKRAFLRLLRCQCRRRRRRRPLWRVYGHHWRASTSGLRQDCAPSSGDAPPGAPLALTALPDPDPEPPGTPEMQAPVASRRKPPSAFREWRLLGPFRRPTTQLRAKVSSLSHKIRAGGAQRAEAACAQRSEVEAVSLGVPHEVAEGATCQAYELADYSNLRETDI
Procedure: as §1

[4] = target: T4, Adrenergic α2B (Homo sapiens, UniProt P18089); test: In vitro SafetyScreen panel; format: binding
T4 construct: Eurofins Discovery (contract panel) PP223
Procedure: as §1

[5] = target: T5, Angiotensin AT1 (Homo sapiens, UniProt P30556); test: In vitro SafetyScreen panel; format: binding
T5 construct: Eurofins Discovery (contract panel) PP223
Procedure: as §1

[6] = target: T6, Bradykinin B2 (Homo sapiens, UniProt P30411); test: In vitro SafetyScreen panel; format: binding
T6 construct: Eurofins Discovery (contract panel) PP223
T6 sequence (P30411 whole entry): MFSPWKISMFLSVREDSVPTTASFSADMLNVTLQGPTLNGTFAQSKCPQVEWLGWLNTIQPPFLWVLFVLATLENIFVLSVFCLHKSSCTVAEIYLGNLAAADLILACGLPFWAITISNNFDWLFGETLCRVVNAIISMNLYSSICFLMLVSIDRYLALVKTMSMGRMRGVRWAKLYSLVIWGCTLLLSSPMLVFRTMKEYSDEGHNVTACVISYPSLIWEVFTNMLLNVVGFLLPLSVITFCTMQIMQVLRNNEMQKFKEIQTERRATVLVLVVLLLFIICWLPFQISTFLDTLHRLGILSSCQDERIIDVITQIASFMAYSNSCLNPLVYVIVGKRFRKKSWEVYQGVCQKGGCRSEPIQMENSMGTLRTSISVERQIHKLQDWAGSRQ
Procedure: as §1

[7] = target: T7, Chemokine CXCR2 (IL-8RB) (Homo sapiens, UniProt P25025); test: In vitro SafetyScreen panel; format: binding
T7 construct: Eurofins Discovery (contract panel) PP223
Procedure: as §1

[8] = target: T8, Cholecystokinin CCK1 (CCKA) (Homo sapiens, UniProt P32238); test: In vitro SafetyScreen panel; format: binding
T8 construct: Eurofins Discovery (contract panel) PP223
T8 sequence (P32238 whole entry): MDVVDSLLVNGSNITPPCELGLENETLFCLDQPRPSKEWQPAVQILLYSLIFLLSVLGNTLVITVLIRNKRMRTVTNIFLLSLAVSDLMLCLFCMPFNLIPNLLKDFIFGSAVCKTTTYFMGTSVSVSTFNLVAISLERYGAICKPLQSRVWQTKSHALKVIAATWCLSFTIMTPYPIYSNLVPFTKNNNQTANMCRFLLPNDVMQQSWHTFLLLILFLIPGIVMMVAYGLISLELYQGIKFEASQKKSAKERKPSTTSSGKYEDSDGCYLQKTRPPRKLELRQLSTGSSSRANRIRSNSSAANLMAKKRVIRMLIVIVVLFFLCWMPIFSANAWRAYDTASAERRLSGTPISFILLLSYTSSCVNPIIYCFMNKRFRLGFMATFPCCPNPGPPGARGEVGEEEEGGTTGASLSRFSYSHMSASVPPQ
Procedure: as §1

[9] = target: T9, Dopamine D2L (Homo sapiens, UniProt P14416); test: In vitro SafetyScreen panel; format: binding
T9 construct: Eurofins Discovery (contract panel) Item PP223
Procedure: as §1

[10] = target: T10, Dopamine D2S (Homo sapiens, UniProt P14416); test: In vitro SafetyScreen panel; format: binding
T10 construct: Eurofins Discovery (contract panel) Item PP223
T10 sequence (P14416 1-414 isoform P14416-2): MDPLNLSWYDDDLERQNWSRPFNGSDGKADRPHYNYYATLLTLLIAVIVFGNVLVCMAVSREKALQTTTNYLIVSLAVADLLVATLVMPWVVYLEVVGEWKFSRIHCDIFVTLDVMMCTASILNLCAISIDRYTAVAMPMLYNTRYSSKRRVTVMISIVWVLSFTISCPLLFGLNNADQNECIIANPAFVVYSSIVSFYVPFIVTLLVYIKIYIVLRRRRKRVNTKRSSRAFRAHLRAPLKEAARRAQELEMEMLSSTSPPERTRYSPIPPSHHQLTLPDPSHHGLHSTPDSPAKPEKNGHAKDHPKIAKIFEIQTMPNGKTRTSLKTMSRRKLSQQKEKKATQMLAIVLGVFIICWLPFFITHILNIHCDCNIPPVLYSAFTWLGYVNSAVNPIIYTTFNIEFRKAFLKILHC
Procedure: as §1

[11] = target: T11, Endothelin ETA (Homo sapiens, UniProt P25101); test: In vitro SafetyScreen panel; format: binding
T11 construct: Eurofins Discovery (contract panel) Item PP223
Procedure: as §1

[12] = target: T12, Glucocorticoid (Homo sapiens, UniProt P04150); test: In vitro SafetyScreen panel; format: binding
T12 construct: Eurofins Discovery (contract panel) Item PP223
Procedure: as §1

[13] = target: T13, Histamine H2 (Homo sapiens, UniProt P25021); test: In vitro SafetyScreen panel; format: binding
T13 construct: Eurofins Discovery (contract panel) Item PP223
T13 sequence (P25021 whole entry): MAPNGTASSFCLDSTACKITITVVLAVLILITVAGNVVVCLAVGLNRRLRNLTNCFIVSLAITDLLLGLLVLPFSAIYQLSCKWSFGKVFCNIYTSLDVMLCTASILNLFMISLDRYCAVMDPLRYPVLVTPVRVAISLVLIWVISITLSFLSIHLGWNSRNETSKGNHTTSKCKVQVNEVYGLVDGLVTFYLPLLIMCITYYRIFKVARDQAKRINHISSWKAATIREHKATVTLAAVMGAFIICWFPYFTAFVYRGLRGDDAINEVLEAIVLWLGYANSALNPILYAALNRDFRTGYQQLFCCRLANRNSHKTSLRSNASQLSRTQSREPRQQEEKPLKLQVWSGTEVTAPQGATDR
Procedure: as §1

[14] = target: T14, Melanocortin MC1 (Homo sapiens, UniProt Q01726); test: In vitro SafetyScreen panel; format: binding
T14 construct: Eurofins Discovery (contract panel) Item PP223
T14 sequence (Q01726 whole entry): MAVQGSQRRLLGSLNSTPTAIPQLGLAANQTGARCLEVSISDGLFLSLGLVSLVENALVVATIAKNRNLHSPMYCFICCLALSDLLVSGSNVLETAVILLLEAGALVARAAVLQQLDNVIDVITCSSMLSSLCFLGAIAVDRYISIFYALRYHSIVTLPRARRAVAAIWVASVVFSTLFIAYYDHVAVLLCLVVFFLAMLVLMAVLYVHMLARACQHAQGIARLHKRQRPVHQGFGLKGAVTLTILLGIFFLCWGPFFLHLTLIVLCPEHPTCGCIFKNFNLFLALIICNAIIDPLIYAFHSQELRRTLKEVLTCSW
Procedure: as §1

[15] = target: T15, Melanocortin MC4 (Homo sapiens, UniProt P32245); test: In vitro SafetyScreen panel; format: binding
T15 construct: Eurofins Discovery (contract panel) Item PP223
T15 sequence (P32245 whole entry): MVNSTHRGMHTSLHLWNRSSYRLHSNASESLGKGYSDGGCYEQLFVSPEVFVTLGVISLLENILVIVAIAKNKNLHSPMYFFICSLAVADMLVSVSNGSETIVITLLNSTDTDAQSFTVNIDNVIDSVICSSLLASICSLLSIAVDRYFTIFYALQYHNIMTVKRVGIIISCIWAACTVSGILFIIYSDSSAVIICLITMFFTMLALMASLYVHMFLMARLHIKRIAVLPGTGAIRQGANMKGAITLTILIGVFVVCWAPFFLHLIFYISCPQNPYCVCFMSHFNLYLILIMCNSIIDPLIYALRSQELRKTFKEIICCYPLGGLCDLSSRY
Procedure: as §1

[16] = target: T16, Muscarinic M2 (Homo sapiens, UniProt P08172); test: In vitro SafetyScreen panel; format: binding
T16 construct: Eurofins Discovery (outsourced panel) PP223
T16 sequence (P08172 whole entry): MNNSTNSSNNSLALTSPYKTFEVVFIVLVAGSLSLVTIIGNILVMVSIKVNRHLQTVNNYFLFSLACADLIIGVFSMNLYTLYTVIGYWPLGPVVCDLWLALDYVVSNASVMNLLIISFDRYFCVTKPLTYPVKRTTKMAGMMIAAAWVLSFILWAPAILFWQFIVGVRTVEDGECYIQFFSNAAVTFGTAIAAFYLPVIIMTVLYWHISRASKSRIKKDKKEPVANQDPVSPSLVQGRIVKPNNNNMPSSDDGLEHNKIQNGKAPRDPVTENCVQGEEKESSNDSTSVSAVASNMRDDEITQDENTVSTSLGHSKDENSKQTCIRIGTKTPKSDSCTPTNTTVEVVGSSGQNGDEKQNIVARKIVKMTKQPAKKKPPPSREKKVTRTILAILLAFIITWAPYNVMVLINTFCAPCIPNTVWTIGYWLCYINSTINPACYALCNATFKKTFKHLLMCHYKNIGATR
Procedure: as §1

[17] = target: T17, Muscarinic M4 (Homo sapiens, UniProt P08173); test: In vitro SafetyScreen panel; format: binding
T17 construct: Eurofins Discovery (outsourced panel) PP223
Procedure: as §1

[18] = target: T18, Potassium Channel hERG (Homo sapiens, UniProt Q12809); test: In vitro SafetyScreen panel; format: binding
T18 construct: Eurofins Discovery (outsourced panel) PP223
Procedure: as §1

[19] = target: T19, Progesterone PR-B (Homo sapiens, UniProt P06401); test: In vitro SafetyScreen panel; format: binding
T19 construct: Eurofins Discovery (outsourced panel) PP223
Procedure: as §1

[20] = target: T20, Serotonin (5-Hydroxytryptamine) 5-HT1A (Homo sapiens, UniProt P08908); test: In vitro SafetyScreen panel; format: binding
T20 construct: Eurofins Discovery (outsourced panel) PP223
T20 sequence (P08908 whole entry): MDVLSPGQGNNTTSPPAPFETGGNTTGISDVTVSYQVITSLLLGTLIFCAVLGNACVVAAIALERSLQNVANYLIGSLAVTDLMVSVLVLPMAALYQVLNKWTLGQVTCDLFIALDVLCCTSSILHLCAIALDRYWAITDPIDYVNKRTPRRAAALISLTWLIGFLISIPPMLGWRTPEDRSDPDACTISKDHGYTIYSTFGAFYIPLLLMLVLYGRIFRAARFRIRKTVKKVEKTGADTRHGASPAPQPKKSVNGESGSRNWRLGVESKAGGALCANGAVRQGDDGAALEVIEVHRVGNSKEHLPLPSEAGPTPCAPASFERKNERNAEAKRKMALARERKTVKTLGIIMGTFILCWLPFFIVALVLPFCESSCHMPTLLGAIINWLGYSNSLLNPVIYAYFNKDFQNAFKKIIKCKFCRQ
Procedure: as §1

[21] = target: T21, Serotonin (5-Hydroxytryptamine) 5-HT2A (Homo sapiens, UniProt P28223); test: In vitro SafetyScreen panel; format: binding
T21 construct: Eurofins Discovery (outsourced panel) PP223
T21 sequence (P28223 whole entry): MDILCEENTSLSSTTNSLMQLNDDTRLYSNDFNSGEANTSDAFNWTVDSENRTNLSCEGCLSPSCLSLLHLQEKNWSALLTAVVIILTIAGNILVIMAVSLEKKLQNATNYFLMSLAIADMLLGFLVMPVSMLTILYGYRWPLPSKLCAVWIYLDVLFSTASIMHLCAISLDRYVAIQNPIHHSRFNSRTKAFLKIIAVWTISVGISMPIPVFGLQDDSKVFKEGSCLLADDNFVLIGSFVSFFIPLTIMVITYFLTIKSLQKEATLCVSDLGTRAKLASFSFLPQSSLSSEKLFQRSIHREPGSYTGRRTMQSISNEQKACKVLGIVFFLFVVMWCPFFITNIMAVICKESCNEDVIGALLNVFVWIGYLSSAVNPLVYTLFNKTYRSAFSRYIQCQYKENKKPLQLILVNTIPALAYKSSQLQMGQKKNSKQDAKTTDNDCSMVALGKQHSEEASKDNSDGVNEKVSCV
Procedure: as §1

[22] = target: T22, Serotonin (5-Hydroxytryptamine) 5-HT2B (Homo sapiens, UniProt P41595); test: In vitro SafetyScreen panel; format: binding
T22 construct: Eurofins Discovery (contract panel) PP223
Procedure: as §1

[23] = target: T23, Serotonin (5-Hydroxytryptamine) 5-HT2C (Homo sapiens, UniProt P28335); test: In vitro SafetyScreen panel; format: binding
T23 construct: Eurofins Discovery (contract panel) PP223
Procedure: as §1

[24] = target: T24, Tachykinin NK1 (Homo sapiens, UniProt P25103); test: In vitro SafetyScreen panel; format: binding
T24 construct: Eurofins Discovery (contract panel) PP223
Procedure: as §1

[25] = target: T25, Transporter, Serotonin (5-Hydroxytryptamine) (SERT) (Homo sapiens, UniProt P31645); test: In vitro SafetyScreen panel; format: binding
T25 construct: Eurofins Discovery (contract panel) PP223
T25 sequence (P31645 whole entry): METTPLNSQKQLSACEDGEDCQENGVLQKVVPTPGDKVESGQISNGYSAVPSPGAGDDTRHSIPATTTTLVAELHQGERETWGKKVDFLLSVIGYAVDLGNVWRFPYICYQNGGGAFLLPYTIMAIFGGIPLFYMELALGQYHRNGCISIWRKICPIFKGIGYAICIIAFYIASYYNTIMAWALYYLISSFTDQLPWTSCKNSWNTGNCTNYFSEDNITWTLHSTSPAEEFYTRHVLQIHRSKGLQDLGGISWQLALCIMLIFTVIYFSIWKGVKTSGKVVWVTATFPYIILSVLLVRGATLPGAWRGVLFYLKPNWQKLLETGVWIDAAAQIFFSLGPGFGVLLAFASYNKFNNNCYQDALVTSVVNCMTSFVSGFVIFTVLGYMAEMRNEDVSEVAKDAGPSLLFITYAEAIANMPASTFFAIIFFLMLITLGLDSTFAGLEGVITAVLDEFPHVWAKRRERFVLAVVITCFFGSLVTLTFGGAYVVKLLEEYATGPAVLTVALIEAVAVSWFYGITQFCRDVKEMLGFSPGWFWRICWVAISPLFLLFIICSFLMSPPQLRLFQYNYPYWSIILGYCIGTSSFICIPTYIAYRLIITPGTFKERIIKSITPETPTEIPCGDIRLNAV
Procedure: as §1

[26] = target: T26, Nicotinic Acetylcholine α1, Bungarotoxin (Homo sapiens, UniProt P02708+P07510+Q07001); test: In vitro SafetyScreen panel; format: binding
T26 construct: Eurofins Discovery (outsourced panel) PP223

[27] = In vivo brain/plasma distribution in rats; settings: rat, iv, SD rats, single 0.3 mg/kg i.v., read-out: brain/plasma concentration ratio
Procedure: SD rats (half male and half female) were intravenously given a single dose of 0.3 mg/kg HSK21542. The samples were collected at 0.083, 0.5, 1.5 and 4 h after dosing. The rats were anesthetized with isoflurane and then sacrificed by taking blood from the abdominal aorta. The whole brains were rapidly removed from the crania. The plasma (∼100 μL) was separated from the blood by centrifugating at 2000 ×g for 10 min at 4°C. The brains were rinsed with ice-cold normal saline, blotted dry, weighted and placed into a plastic tube. For 1.0 g of brain sample, 4 ml of acetonitrile-ultrapure water solution (1:4, v/v) was added to the tube. The brain samples were then homogenized for 120 s at 50 Hz and ultrasound was performed for 5 min. The plasma and the brain samples were analyzed using a LC-MS/MS assay as detailed in supplementary materials.
The plasma or brain homogenate was ice thawed. […] The resulting solution was then analyzed to determine the concentrations of HSK21542 on a LC-MS/MS system, which consisted of a DGU-20A5R degasser, a LC-30AD pump, a SIL-30AC autosampler, a CTO-20A column oven (Shimadzu, Japan) and an AB Sciex Triple Quad 5500 mass spectrometer (Sciex, Canada). […] Quantification was conducted in positive ion mode. The MRM transition of m/z 704.4→295.2 was used to quantify HSK21542.

SMILES: CC(=O)N1CC2(CCN(C(=O)[C@@H](CCCCN)NC(=O)[C@@H](CC(C)C)NC(=O)[C@@H](Cc3ccccc3)NC(=O)[C@H](N)Cc3ccccc3)CC2)C1 [HSK21542, 7-(D-phenylalanyl-D-phenylalanyl-D-leucyl-D-lysyl)-2-acetyl-2,7-diazaspiro (3.5)nonane]
- inhibition at 10 µM [1]: 0%
- inhibition at 10 µM [2]: 3%
- inhibition at 10 µM [3]: -1%
- inhibition at 10 µM [4]: -6%
- inhibition at 10 µM [5]: -7%
- inhibition at 10 µM [6]: -3%
- inhibition at 10 µM [7]: 4%
- inhibition at 10 µM [8]: 5%
- inhibition at 10 µM [9]: -6%
- inhibition at 10 µM [10]: -15%
- inhibition at 10 µM [11]: 4%
- inhibition at 10 µM [12]: 8%
- inhibition at 10 µM [13]: 8%
- inhibition at 10 µM [14]: -3%
- inhibition at 10 µM [15]: 27%
- inhibition at 10 µM [16]: 1%
- inhibition at 10 µM [17]: 3%
- inhibition at 10 µM [18]: 1%
- inhibition at 10 µM [19]: -1%
- inhibition at 10 µM [20]: 1%
- inhibition at 10 µM [21]: 0%
- inhibition at 10 µM [22]: 0%
- inhibition at 10 µM [23]: 0%
- inhibition at 10 µM [24]: 21%
- inhibition at 10 µM [25]: 7%
- inhibition at 10 µM [26]: -5%
- Kp [27]: 0.001

— PMC8635029 (Frontiers in Pharmacology, 2021)
